Here are results for 13 compounds from patent US20230150974A1 (Foghorn Therapeutics Inc., priority 2020, published 2023).

Structures are written as SMILES.

One assay addresses T1, HiBiT-BRM (Homo sapiens, UniProt P51531).
T1 construct: expressed in transfected cells
In words: HiBiT-BRM cell-based degradation assay (Nano-Glo HiBiT Lytic Detection). Conditions: HeLa cells expressing HiBiT-BRM, 24 h; for DC50: read-out: BRM HiBit Degradation IC50. The method, then:
(§1) Procedure: A stable HeLa cell line expressing HiBiT-BRM was generated. On day 0, 5000 cells were seeded in 40 μL of media into each well of 384-well cell culture plates. […] Subsequently plates were incubated for 24 h in a standard tissue culture incubator and equilibrated at room temperature for 15 minutes. Nano-Glo HiBiT Lytic Detection System (Promega N3050) reagent was freshly prepared and 20 ul was added to each well. Upon addition of this LgBit-containing reagent, the HiBiT and LgBiT proteins associate to form the luminescent NanoBiT luciferase. The plates were shaken for 10 minutes at room temperature and the bioluminescence read using an EnVision plate reader (PerkinElmer).
(§2) The degradation % was calculated using the following formula: % degradation=100%−100%×(LumSample−LumLC)/(LumHC−LumLC). DMSO treated cells are employed as High Control (HC) and 2 μM of a known BRM/BRG1 degrader standard treated cells are employed as Low Control (LC).

The target in a further assay is T2, HiBit-BRG1 (Homo sapiens, UniProt P51532).
T2 construct: expressed in transfected cells
T2 sequence (P51532 whole entry): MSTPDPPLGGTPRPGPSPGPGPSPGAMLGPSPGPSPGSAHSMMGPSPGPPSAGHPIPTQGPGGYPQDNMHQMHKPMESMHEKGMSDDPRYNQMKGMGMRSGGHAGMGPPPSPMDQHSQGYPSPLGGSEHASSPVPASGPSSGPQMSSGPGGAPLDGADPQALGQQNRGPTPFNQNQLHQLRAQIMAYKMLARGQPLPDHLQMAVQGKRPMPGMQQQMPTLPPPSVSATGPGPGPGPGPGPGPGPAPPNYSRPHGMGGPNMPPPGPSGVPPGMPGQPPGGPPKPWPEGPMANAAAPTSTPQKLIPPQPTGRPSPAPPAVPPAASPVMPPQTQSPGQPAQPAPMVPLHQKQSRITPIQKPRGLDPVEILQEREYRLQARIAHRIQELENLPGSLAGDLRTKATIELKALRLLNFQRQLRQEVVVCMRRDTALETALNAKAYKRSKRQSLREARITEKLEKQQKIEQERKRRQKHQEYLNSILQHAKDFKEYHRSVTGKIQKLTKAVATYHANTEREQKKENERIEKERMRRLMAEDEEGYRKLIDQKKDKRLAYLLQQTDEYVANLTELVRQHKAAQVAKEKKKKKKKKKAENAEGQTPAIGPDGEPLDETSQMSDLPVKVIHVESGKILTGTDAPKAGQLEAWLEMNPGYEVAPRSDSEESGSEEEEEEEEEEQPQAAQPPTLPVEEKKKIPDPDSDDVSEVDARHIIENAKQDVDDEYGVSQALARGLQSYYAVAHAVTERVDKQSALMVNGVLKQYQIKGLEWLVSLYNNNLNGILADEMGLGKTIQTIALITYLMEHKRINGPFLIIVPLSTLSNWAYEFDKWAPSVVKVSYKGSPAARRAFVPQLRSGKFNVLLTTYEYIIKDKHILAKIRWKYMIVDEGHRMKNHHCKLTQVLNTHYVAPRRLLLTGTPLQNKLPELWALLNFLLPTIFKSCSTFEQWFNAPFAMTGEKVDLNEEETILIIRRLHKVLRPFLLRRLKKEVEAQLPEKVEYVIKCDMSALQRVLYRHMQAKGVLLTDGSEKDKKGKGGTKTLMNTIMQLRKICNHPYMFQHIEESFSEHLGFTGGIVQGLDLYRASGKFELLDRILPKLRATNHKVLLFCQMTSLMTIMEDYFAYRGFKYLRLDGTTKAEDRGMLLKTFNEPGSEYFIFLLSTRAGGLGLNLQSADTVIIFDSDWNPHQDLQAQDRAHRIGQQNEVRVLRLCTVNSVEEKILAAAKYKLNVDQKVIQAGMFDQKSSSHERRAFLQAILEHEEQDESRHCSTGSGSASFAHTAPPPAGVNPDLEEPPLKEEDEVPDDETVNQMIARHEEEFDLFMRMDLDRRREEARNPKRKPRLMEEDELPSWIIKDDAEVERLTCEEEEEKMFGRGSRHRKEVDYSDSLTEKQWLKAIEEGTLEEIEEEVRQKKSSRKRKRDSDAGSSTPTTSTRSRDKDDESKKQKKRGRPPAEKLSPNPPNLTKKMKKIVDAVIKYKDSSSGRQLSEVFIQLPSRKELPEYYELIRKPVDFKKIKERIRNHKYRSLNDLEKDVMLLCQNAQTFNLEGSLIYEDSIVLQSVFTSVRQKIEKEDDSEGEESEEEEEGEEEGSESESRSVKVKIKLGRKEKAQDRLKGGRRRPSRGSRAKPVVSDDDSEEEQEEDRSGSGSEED
In words: HiBit-BRG1 cell-based degradation assay (Nano-Glo HiBiT Lytic Detection). The following applies: HeLa cells expressing HiBit-BRG1 and LgBit, 24 h; for DC50: read-out: BRG1 HiBit Degradation IC50; for Dmax: read-out: BRG1 HiBit Degradation Maximum (%). As to the method: as §1
For measurement of BRG1 degradation, a stable HeLa cell line expressing HiBit-BRG1 and LgBit was generated. The same protocol as above was then followed.
as §2
Background: HiBiT is a short tag that completes a luciferase, so light tracks the accessible tagged protein.

T1 sequence (P51531 whole entry): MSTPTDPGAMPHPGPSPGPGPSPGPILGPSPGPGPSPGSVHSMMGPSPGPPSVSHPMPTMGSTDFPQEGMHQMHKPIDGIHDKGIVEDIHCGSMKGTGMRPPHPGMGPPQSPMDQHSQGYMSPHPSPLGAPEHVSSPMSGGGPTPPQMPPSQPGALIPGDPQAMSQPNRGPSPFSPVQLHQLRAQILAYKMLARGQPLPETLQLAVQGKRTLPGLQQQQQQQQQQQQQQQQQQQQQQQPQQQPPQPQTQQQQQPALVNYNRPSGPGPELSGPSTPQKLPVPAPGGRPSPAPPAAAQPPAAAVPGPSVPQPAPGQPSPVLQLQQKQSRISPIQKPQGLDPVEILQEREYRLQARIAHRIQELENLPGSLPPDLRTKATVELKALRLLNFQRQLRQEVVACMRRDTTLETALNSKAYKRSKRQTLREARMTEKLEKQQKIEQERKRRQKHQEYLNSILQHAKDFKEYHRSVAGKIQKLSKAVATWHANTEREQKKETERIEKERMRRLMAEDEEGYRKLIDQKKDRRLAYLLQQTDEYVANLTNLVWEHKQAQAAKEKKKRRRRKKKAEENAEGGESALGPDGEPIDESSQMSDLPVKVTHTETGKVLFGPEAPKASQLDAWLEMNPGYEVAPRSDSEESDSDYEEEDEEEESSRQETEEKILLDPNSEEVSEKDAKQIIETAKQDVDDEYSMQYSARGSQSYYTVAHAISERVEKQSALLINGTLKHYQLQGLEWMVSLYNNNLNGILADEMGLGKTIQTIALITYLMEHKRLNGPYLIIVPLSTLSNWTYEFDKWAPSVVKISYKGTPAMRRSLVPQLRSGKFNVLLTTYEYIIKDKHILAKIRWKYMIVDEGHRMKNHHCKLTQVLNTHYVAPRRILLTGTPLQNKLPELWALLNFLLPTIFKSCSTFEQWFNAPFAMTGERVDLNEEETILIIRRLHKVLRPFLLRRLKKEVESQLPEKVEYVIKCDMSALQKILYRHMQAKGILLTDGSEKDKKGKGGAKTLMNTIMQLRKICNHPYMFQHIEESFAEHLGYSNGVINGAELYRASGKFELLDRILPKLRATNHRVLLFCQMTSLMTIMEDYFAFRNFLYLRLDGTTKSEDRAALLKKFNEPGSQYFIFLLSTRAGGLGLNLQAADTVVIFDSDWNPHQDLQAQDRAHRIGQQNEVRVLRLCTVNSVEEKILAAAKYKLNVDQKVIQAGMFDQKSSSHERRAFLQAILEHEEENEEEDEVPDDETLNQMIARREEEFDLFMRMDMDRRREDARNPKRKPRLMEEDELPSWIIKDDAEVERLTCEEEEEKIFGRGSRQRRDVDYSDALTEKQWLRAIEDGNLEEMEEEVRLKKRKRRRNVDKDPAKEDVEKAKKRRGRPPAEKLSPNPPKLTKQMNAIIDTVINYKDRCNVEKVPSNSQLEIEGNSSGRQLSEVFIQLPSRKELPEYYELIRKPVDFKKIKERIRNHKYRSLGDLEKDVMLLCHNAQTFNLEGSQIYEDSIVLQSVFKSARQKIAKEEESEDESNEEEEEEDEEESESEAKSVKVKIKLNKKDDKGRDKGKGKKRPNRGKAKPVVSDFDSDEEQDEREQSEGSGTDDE

As to `Nc1nnc(-c2ccccc2O)cc1OCCc1ccc(CNC(=O)CCCNc2cccc3nnn(C4CCC(=O)NC4=O)c(=O)c23)cc1` (stereo not shown) [Compound 106, N-(4-(2-((3-amino-6-(2-hydroxyphenyl)pyridazin-4-yl)oxy)ethyl)benzyl)-4-((3-(2,6-dioxopiperidin-3-yl)-4-oxo-3,4-dihydrobenzo[d][1,2,3]triazin-5-yl)amino)butanamide], at HiBiT-BRM, the “BRM HiBit Degradation Maximum (%)” value is listed as “C (“C” indicates maximum degradation <50%)” and the DC50 is over 1 µM. At HiBit-BRG1, the DC50 is over 1 µM and the Dmax is under 50%.

On to `Nc1nnc(-c2ccccc2O)cc1NCCc1ccc(CNC(=O)CCCCNc2cccc3nnn(C4CCC(=O)NC4=O)c(=O)c23)cc1` (stereo not shown) [Compound 141, N-(4-(2-((3-amino-6-(2-hydroxyphenyl)pyridazin-4-yl)amino)ethyl)benzyl)-5-((3-(2,6-dioxopiperidin-3-yl)-4-oxo-3,4-dihydrobenzo[d][1,2,3]triazin-5-yl)amino)pentanamide], for which, on HiBiT-BRM, the “BRM HiBit Degradation Maximum (%)” value is “C (“C” indicates maximum degradation <50%)” and the DC50 was over 1 µM. On HiBit-BRG1, the DC50 is over 1 µM and the Dmax is under 50%.

For the compound `Nc1nnc(-c2ccccc2O)cc1N1CCN(CCNC(=O)CCCCCCCCNc2ccc3c(c2)C(=O)N(C2CCC(=O)NC2=O)C3=O)CC1` (stereo not shown) [Compound 92], on HiBiT-BRM, the “BRM HiBit Degradation Maximum (%)” value is listed as “C (“C” indicates maximum degradation <50%)” and the DC50 was over 1 µM. Also, on HiBit-BRG1, the DC50 is over 1 µM and the Dmax was under 50%.

Consider `Cc1ncsc1-c1ccc([C@H](C)NC(=O)[C@@H]2C[C@@H](O)CN2C(=O)[C@@H](c2cc(OCCN3[C@@H]4CC[C@H]3CN(C(=O)c3ccc(CCOc5cc(-c6ccccc6O)nnc5N)cc3)C4)no2)C(C)C)cc1` [Compound 221, (2S,4R)-1-[(2R)-2-[3-(2-[3-[4-(2-[[3-amino-6-(2-hydroxyphenyl)pyridazin-4-yl]oxy]ethyl)benzoyl]-3,8-diazabicyclo[3.2.1]octan-8-yl]ethoxy)-1,2-oxazol-5-yl]-3-methylbutanoyl]-4-hydroxy-N-[(1S)-1-[4-(4-methyl-1,3-thiazol-5-yl)phenyl]ethyl]pyrrolidine-2-carboxamide], for which, on HiBiT-BRM, the “BRM HiBit Degradation Maximum (%)” value is on record as “A (“A” indicates maximum degradation ≥75%)” and the DC50 was over 0.01 µM. Further, at HiBit-BRG1, the DC50 was under 0.01 µM and the Dmax is over 75%.

On to `Cc1ncsc1-c1ccc([C@H](C)NC(=O)[C@@H]2C[C@@H](O)CN2C(=O)[C@@H](c2cc(OCCN3CC4(C3)CN(CC(=O)NCc3ccc(CCOc5cc(-c6ccccc6O)nnc5N)cc3)C4)no2)C(C)C)cc1` [Compound 191, (2S,4R)-1-[(2R)-2-[3-(2-[6-[([[4-(2-[[3-amino-6-(2-hydroxyphenyl)pyridazin-4-yl]oxy]ethyl)phenyl]methyl]carbamoyl)methyl]-2,6-diazaspiro[3.3]heptan-2-yl]ethoxy)-1,2-oxazol-5-yl]-3-methylbutanoyl]-4-hydroxy-N-[(1S)-1-[4-(4-methyl-1,3-thiazol-5-yl)phenyl]ethyl]pyrrolidine-2-carboxamide], for which, on HiBiT-BRM, the “BRM HiBit Degradation Maximum (%)” value is reported as “A (“A” indicates maximum degradation ≥75%)” and the DC50 was over 0.1 µM. Also, on HiBit-BRG1, the DC50 was over 1 µM and the Dmax is over 75%.

`Nc1nnc(-c2ccccc2O)cc1OCCc1ccc(C(=O)NCCCC(=O)NCc2ccc(S(=O)(=O)Nc3cccc4c(Cl)c[nH]c34)cc2)cc1` [Compound 16, 4-[[4-(2-[[3-amino-6-(2-hydroxyphenyl)pyridazin-4-yl]oxy]ethyl)phenyl]formamido]-N-([4-[(3-chloro-1H-indol-7-yl)sulfamoyl]phenyl]methyl)butanamide]: on HiBiT-BRM, the “BRM HiBit Degradation Maximum (%)” value is recorded as “C (“C” indicates maximum degradation <50%)” and the DC50 is over 1 µM. In addition, at HiBit-BRG1, the DC50 is over 1 µM and the Dmax is under 50%.

Take `Cc1ncsc1-c1ccc(CNC(=O)[C@@H]2C[C@@H](O)CN2C(=O)[C@@H](NC(=O)CCCCCCC(=O)NCc2ccc(CCOc3cc(-c4ccccc4O)nnc3N)cc2)C(C)(C)C)cc1` [Compound 30]: at HiBiT-BRM, the “BRM HiBit Degradation Maximum (%)” value was “A (“A” indicates maximum degradation ≥75%)” and the DC50 is over 0.1 µM. Besides, at HiBit-BRG1, the DC50 was over 1 µM and the Dmax was under 50%.

As for `Cc1ncsc1-c1ccc(CNC(=O)[C@@H]2C[C@@H](O)CN2C(=O)[C@@H](NC(=O)CCCCCCCCCCCCCC(=O)NCc2ccc(CCOc3cc(-c4ccccc4O)nnc3N)cc2)C(C)(C)C)cc1` [Compound 35, N1-(4-(2-((3-amino-6-(2-hydroxyphenyl)pyridazin-4-yl)oxy)ethyl)benzyl)-N15-((S)-1-((2S,4R)-4-hydroxy-2-((4-(4-methylthiazol-5-yl)benzyl)carbamoyl)pyrrolidin-1-yl)-3,3-dimethyl-1-oxobutan-2-yl)pentadecanediamide], on HiBiT-BRM, the “BRM HiBit Degradation Maximum (%)” value is on record as “A (“A” indicates maximum degradation ≥75%)” and the DC50 is over 0.01 µM. On HiBit-BRG1, the DC50 is over 1 µM and the Dmax is under 50%.

For the compound `Cc1ncsc1-c1ccc([C@H](C)NC(=O)[C@@H]2C[C@@H](O)CN2C(=O)[C@@H](NC(=O)CCCCCCCCCCN2C[C@@H]3CN(Cc4ccc(CCOc5cc(-c6ccccc6O)nnc5N)cc4)C[C@@H]3C2)C(C)(C)C)cc1` [Compound 264, (2S,4R)-1-((2S)-2-(11-(5-(4-(2-((3-amino-6-(2-hydroxyphenyl)pyridazin-4-yl)oxy)ethyl)benzyl)hexahydropyrrolo[3,4-c]pyrrol-2(1H)-yl)undecanamido)-3,3-dimethylbutanoyl)-4-hydroxy-N-((S)-1-(4-(4-methylthiazol-5-yl)phenyl)ethyl)pyrrolidine-2-carboxamide], on HiBiT-BRM, the “BRM HiBit Degradation Maximum (%)” value is “A (“A” indicates maximum degradation ≥75%)” and the DC50 was over 0.01 µM. Besides, on HiBit-BRG1, the DC50 is over 0.1 µM and the Dmax is over 50%.

`Cc1ncsc1-c1ccc(CNC(=O)[C@@H]2C[C@@H](O)CN2C(=O)[C@@H](NC(=O)CCN2CC(CC(=O)NCc3ccc(CCOc4cc(-c5ccccc5O)nnc4N)cc3)C2)C(C)(C)C)cc1` [Compound 183, (2S,4R)-1-[(2S)-2-(3-[3-[([[4-(2-[[3-amino-6-(2-hydroxyphenyl)pyridazin-4-yl]oxy]ethyl)phenyl]methyl]carbamoyl)methyl]azetidin-1-yl]propanamido)-3,3-dimethylbutanoyl]-4-hydroxy-N-[[4-(4-methyl-1,3-thiazol-5-yl)phenyl]methyl]pyrrolidine-2-carboxamide]: on HiBiT-BRM, the “BRM HiBit Degradation Maximum (%)” value is “C (“C” indicates maximum degradation <50%)” and the DC50 was over 1 µM. Also, on HiBit-BRG1, the DC50 was over 1 µM and the Dmax was under 50%.

Consider `Cc1ncsc1-c1ccc(CNC(=O)[C@H]2C[C@H](O)CN2C(=O)[C@H](NC(=O)COCCOCCNC(=O)c2ccc(CCOc3cc(-c4ccccc4O)nnc3N)cc2)C(C)(C)C)cc1` (stereo in doubt) [Compound 59, (2R,4S)-1-[(2R)-2-[2-[2-(2-[[4-(2-[[3-amino-6-(2-hydroxyphenyl)pyridazin-4-yl]oxy]ethyl)phenyl]formamido]ethoxy)ethoxy]acetamido]-3,3-dimethylbutanoyl]-4-hydroxy-N-[[4-(4-methyl-1,3-thiazol-5-yl)phenyl]methyl]pyrrolidine-2-carboxamide], for which, at HiBiT-BRM, the “BRM HiBit Degradation Maximum (%)” value is “B (“B” indicates maximum degradation ≥50%)” and the DC50 is over 1 µM. Also, at HiBit-BRG1, the DC50 was over 1 µM and the Dmax is under 50%.

For `Nc1nnc(-c2ccccc2O)cc1OCCc1ccc(C(=O)NCCC(=O)NCc2ccc(S(=O)(=O)Nc3cccc4c(Cl)c[nH]c34)cc2)cc1` [Compound 17, 3-[[4-(2-[[3-amino-6-(2-hydroxyphenyl)pyridazin-4-yl]oxy]ethyl)phenyl]formamido]-N-([4-[(3-chloro-1H-indol-7-yl)sulfamoyl]phenyl]methyl)propanamide], at HiBiT-BRM, the “BRM HiBit Degradation Maximum (%)” value is on record as “C (“C” indicates maximum degradation <50%)” and the DC50 is over 1 µM. Besides, at HiBit-BRG1, the DC50 is over 1 µM and the Dmax is under 50%.

For the compound `Cc1ncsc1-c1ccc(CNC(=O)[C@@H]2C[C@H](O)CN2C(=O)[C@@H](NC(=O)CCCCCCCCCNC(=O)c2ccc(CCOc3cc(-c4ccccc4O)nnc3N)cc2)C(C)(C)C)cc1` [Compound 105, (2S,4S)-1-((S)-2-(10-(4-(2-((3-amino-6-(2-hydroxyphenyl)pyridazin-4-yl)oxy)ethyl)benzamido)decanamido)-3,3-dimethylbutanoyl)-4-hydroxy-N-(4-(4-methylthiazol-5-yl)benzyl)pyrrolidine-2-carboxamide], on HiBiT-BRM, the “BRM HiBit Degradation Maximum (%)” value is recorded as “C (“C” indicates maximum degradation <50%)” and the DC50 is over 1 µM. At HiBit-BRG1, the DC50 was over 1 µM and the Dmax was under 50%.
